The values below come from patent US9550808B2, “Peptide inhibitors of nicotinic acetylcholine receptor” (LIMITED LIABILITY COMPANY SYNEURO, priority 2013, dated 2017).

Data set [1] relates to mimic wrinkles. To be noted: cited from earlier work.
For data set [2], the target named is T1, muscle-type nicotinic acetylcholine receptor (α1, β1, δ and ε-subunits) (Homo sapiens, UniProt P02708+Q04844+Q07001).
T1 construct: expressed in transfected cells; host or cells: Xenopus laevis oocytes (nuclear injection of plasmids, CMV promoter)
T1 sequence (P02708 21-457): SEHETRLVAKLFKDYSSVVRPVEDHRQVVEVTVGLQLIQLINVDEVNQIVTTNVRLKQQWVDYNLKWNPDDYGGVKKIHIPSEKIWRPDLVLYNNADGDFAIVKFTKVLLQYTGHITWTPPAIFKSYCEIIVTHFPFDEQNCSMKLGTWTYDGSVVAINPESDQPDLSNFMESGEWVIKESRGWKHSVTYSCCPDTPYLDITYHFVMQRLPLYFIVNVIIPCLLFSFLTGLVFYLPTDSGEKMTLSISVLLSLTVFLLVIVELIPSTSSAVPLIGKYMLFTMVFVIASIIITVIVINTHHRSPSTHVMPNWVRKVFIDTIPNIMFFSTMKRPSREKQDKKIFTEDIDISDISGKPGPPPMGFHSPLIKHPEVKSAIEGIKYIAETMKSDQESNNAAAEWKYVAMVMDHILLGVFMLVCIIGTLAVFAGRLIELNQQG
T1 sequence (Q04844 21-493): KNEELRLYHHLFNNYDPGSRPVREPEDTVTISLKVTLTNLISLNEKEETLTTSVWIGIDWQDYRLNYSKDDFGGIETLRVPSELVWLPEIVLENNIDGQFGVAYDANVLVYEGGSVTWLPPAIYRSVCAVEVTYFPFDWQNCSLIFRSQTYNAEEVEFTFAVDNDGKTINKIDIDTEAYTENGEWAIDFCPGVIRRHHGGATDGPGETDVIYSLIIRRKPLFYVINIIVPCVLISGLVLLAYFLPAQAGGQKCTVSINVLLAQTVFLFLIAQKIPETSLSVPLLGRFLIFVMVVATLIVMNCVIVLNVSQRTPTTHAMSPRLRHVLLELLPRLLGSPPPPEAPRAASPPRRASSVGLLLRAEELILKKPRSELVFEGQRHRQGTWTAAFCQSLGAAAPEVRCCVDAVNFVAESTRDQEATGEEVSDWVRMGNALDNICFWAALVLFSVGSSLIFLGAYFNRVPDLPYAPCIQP
T1 sequence (P11230 24-501, further chain): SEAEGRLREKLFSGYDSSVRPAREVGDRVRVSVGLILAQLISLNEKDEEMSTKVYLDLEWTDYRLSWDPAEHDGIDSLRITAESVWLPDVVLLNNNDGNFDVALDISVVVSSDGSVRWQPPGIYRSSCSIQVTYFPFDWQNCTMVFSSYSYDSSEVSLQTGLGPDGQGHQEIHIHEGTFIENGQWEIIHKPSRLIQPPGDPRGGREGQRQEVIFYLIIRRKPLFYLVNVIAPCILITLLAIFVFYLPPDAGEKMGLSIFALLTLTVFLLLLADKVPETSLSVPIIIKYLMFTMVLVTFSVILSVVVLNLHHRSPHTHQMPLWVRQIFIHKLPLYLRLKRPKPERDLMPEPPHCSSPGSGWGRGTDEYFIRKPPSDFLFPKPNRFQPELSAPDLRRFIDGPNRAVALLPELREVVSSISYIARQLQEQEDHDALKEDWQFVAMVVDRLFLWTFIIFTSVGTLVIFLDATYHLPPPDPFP
T1 sequence (Q07001 22-517): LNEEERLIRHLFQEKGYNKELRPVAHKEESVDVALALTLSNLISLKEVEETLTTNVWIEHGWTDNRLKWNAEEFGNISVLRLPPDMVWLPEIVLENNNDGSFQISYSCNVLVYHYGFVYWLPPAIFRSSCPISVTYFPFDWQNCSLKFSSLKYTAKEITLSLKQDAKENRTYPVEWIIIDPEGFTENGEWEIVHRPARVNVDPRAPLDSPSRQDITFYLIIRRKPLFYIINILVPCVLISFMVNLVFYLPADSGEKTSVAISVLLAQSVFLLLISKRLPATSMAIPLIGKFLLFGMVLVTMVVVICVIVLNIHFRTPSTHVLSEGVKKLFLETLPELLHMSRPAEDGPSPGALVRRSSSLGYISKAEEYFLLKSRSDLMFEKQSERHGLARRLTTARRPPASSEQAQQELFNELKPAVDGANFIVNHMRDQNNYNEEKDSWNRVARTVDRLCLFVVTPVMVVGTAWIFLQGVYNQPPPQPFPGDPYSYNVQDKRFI
Put plainly: Inhibition of acetylcholine-induced current through muscle-type nAChR expressed in Xenopus laevis oocytes (two-electrode voltage clamp). To be noted: for inhibiting activity towards the muscle receptor, retrosequences compared with initial Az3 and [Tyr2]Az3: 1 mM. Format: cell-based. (In general: Two-electrode voltage clamp holds a large cell at a set potential and records current.)

The test system of data set [3] is male Balb mice. In words: Acute toxicity in mice (intraperitoneal and per os). Format: in vivo. To be noted: for acute toxicity after intraperitoneal administration: male Balb mice, 1, 3, 10 and 30 mg/kg i.p.; for acute toxicity per os (administration into the stomach): male Balb mice, 2.5, 10, 40, 160 mg/kg per os. The protocol:
Estimation of acute toxicity (LD50) after intraperitoneal administration of peptide H-Trp-Trp-Pro-Lys-Pro-OH (SEQ ID NO: 1) was carried out on 40 male Balb mice weighting 20-23 g, separated into five equal groups. Mice were intraperitoneally injected with the peptide at doses of 1 mg/kg, 3 mg/kg, 10 mg/kg and 30 mg/kg in 0.2 ml sterile 0.9% NaCl solution. Control animals were injected with same volume of 0.9% NaCl.
Investigation of acute toxicity (LD50 per os) after administration of the peptide directly into a stomach by a special catheter was conducted on 40 male Balb mice weighting 20-23 g. Animals were randomly divided into 5 groups. The drug was applied at doses 2.5 mg/kg, 10 mg/kg, 40 mg/kg, 160 mg/kg in 0.2 ml sterile solution of 0.9%. Control animals were injected with the same volume of 0.9% NaCl.

Setting [4] is: cream containing 5% Vialox, 28-day application.

Non-standard residues stand in square brackets, D forms with d. Residues, ends and D or L forms follow the SMILES beside them. *: point of attachment. Dab = NCC[C@H](N)C(=O)O; NHBn = c1ccc(CN*)cc1; βAla = NCCC(=O)O

With `NCCC(=O)N1CCC[C@H]1C(=O)N[C@@H](CCN)C(=O)NCc1ccccc1` [Syn-Ake, H-β-Ala-Pro-Dab-NHBzl] (H-[βAla]-Pro-[Dab]-NHBn), in data set [1] (cream containing 4% Syn-Ake, 28-day application, volunteers), the “decrease of depth of wrinkles on foreheads” value is “up to 52%”. Besides, the IC50 in data set [2] was 180 µM.

Regarding “Ac-Glu-Glu-Met-Gln-Arg-Arg-NH2 (Ac-EEMQRR-NH2) [argireline, cosmetic hexapeptide repeating a fragment of SNAP 25]”, the “decrease in the depth of mimic wrinkles” value in data set [1] (cream containing 10% argireline, topical 30-day use, volunteers) is recorded as 30%.

On to “DNWWPKPPHQGPRPPRPRPKP [azemiopsin, reference compound]”, for which the “blockage of the muscle receptor activity” value in data set [2] (50 μM, 20 μM acetylcholine (FIG. 1)) is recorded as “Complete blockage”.

Consider “H-Gly-Pro-Arg-Pro-Ala-NH2 (H-GPRPA-NH2) [Vialox]”, for which, in data set [1] (setting [4]), the “reduction of skin roughness” value was “up to 47%” and the “reduction of wrinkle size” value is on record as “up to 49%”.

H-Tyr-D-Ala-Gly-Phe-Leu-OH [Leuphasyl]: the “enhancement of argireline effect” value in data set [1] (Leuphasyl in combination with argireline) was 1.5 fold.

“H-WWPKP-OH [SEQ ID NO: 1, H-Trp-Trp-Pro-Lys-Pro-OH]”: in data set [2] (150 μg/ml (FIG. 2)), the “inhibition of acetylcholine induced currents, comparison of overlapping pentapeptide fragments of azemiopsin” value is reported as “most active”. Moreover, the “acute toxicity after intraperitoneal administration” value in data set [3] is listed as “did not reveal any toxic effects”; in data set [3] (listed as SEQ ID NO:1), “does not exhibit toxicity”. Moreover, the “acute toxicity per os (administration into the stomach)” value in data set [3] is reported as “no toxic effect was observed”; in data set [3] (listed as SEQ ID NO:1) it was “does not exhibit toxicity”.

Take “H-WYPKP-NH2 [SEQ ID NO: 42, H-Trp-Tyr-Pro-Lys-Pro-NH2]”: inhibition in data set [2] was half-maximal at 23 µM (IC50). The “times more functionally active than commercial analogue Syn-Ake” value in data set [2] (ratio of IC50 values) was “eight”.

Turning to PKPWW, in data set [2], the “inhibiting activity towards the muscle receptor, retrosequences compared with initial Az3 and [Tyr2]Az3” value was “reduced”.

Take PKPYW: the “inhibiting activity towards the muscle receptor, retrosequences compared with initial Az3 and [Tyr2]Az3” value in data set [2] was “reduced”.

In general, IC50 refers to the concentration that inhibits the measured activity by half. High values mean weaker potency in that assay, low ones greater potency in that assay.
